# Measured values: publication PMC4088097 (Scientific Reports, 2014)
# Target: T1, ribose binding protein RbsB (Escherichia coli, UniProt P02925)
# T1 sequence (P02925 26-296): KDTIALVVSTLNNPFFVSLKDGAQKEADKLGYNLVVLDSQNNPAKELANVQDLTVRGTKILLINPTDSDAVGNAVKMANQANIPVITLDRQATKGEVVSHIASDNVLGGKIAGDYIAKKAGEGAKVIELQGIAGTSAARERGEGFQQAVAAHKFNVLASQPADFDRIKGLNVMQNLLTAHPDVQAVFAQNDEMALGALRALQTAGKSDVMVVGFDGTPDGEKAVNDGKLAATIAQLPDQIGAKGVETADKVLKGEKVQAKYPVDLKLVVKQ
# Experiment: ITC with purified protein, […]°C, one-site fit
compound,measurement,value
O=C[C@H](O)[C@H](O)[C@H](O)CO [ribose],Kd,125 nM
